Measurements reported in BindingDB's records for doi:10.1021/acs.jnatprod.6b00262 (Kindai University, 2016).

Test: Antagonist activity at human EGFP-fused CCR3 expressed in mouse L1.2 cells assessed as inhibition of CCL11-induced chemotaxis measured after 1.5 hrs by PicoGreen dsDNA reagent-based assay

Row | Structure (SMILES) | EC50
1 | C/C=C/c1cc(OC)c2c(c1)[C@@H](C)[C@H](c1cc(OC)c(O)c(OC)c1)O2 | 1600 nM
2 | C=CCc1cc(OC)c(O[C@@H](C)[C@H](OC(C)=O)c2ccc(OC)c(OC)c2)c(OC)c1 | 1400 nM
3 | C=CCc1cc(OC)c(O[C@H](C)[C@@H](O)c2cc(OC)c(O)c(OC)c2)c(OC)c1 | 1500 nM
4 | COC(=O)[C@H](Cc1ccc([N+](=O)[O-])cc1)NC(=O)c1cccc2ccccc12 [(S)-2-[(Naphthalene-1-carbonyl)-amino]-3-(4-nitro-phenyl)-propionic acid methyl ester] | 780 nM
